ChEMBL document CHEMBL1142990, “Self-organizing maps for identification of new inhibitors of P-glycoprotein” (J Med Chem, 2007)
pEC50: −log10 of the molar value.

Target: ATP-dependent translocase ABCB1 (Homo sapiens, UniProt P08183)
Test: Inhibition of P-glycoprotein expressed in MDR CCRF vcr1000 cells by daunorubicin efflux assay

Chain of ATP-dependent translocase ABCB1 (P08183 whole entry): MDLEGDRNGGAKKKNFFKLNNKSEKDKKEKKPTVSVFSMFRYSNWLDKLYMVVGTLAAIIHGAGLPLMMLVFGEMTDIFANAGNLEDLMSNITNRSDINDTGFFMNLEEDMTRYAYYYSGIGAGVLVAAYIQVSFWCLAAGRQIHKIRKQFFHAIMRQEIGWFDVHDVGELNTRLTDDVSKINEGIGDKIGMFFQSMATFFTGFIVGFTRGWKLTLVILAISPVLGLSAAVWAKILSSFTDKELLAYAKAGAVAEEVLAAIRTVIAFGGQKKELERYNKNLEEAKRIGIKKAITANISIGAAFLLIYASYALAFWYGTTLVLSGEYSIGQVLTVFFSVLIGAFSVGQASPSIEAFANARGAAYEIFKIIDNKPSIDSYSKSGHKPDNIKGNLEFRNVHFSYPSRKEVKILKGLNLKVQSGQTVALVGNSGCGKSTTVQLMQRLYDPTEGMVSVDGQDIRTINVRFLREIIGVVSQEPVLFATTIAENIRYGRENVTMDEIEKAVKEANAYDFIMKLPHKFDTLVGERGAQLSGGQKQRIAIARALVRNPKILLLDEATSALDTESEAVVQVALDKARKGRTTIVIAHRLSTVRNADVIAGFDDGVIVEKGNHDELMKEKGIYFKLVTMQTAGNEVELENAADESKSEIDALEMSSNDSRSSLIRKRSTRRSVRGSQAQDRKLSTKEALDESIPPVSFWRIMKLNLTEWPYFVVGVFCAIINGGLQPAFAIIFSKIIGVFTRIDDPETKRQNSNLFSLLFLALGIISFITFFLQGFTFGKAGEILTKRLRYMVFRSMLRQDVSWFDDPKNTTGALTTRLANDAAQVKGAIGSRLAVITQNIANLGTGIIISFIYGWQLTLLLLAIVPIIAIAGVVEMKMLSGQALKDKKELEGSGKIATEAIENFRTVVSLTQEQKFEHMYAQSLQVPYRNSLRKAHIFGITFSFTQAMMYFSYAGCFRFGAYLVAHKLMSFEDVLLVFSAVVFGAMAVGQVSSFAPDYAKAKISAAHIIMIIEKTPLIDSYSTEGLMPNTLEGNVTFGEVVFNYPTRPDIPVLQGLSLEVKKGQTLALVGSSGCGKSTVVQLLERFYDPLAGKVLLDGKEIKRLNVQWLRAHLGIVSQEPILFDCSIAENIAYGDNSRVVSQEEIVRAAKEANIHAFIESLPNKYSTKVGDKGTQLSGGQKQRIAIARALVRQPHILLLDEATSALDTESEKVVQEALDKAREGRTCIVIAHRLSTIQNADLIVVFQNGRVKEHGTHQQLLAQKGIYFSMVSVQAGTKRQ

SMILES	pEC50
CC(C)N(CC(O)COc1ccc(O)cc1C(=O)CCc1ccccc1)C(C)C (centres undefined)	5.98
COc1ccc(C2Nc3ccccc3C(=O)N2c2ccc(Oc3ccccc3)cc2)cc1 (centres undefined)	6.00
CCOC(=O)COc1ccccc1C(=O)CCc1ccccc1	4.63
CC(C)(C)c1ccc(CSc2nc3ccc(NC(=O)c4ccc(C(C)(C)C)cc4)cc3s2)cc1	< 4.30
CCOc1ccccc1NC(=O)C1=C(C)NC(=S)NC1c1cccs1 (centres undefined)	5.06
CCCNCC(O)c1oc2ccccc2c1CC (centres undefined)	4.94
CC1Cc2cccc(OCC(O)CN3CCCCC3)c2C1=O (centres undefined)	5.01
COC(CCc1ccccc1)c1ccccc1OCC(O)CN1CCOCC1 (centres undefined)	5.74
O=C(CCc1ccccc1)c1cccc(OCC(O)CN2CCN(c3ccc(F)cc3)CC2)c1 (centres undefined)	5.95
CC(C)(C)c1ccc(C(=O)Nc2ccc3nc(SCc4cccc5ccccc45)sc3c2)cc1	< 4.70
O=C(CCc1ccccc1)c1ccccc1OCC(O)CNCCC(c1ccccc1)c1ccccc1 (centres undefined)	6.14
CC(=O)c1ccc(OCC(O)CN2CCN(c3ccc(F)cc3)CC2)cc1 (centres undefined)	4.92
Clc1ccccc1-c1nc(N2CCCC2)c2ccccc2n1	5.23
O=C(c1ccccc1)c1ccccc1OCC(O)CN1CCC(O)(c2ccccc2)CC1 (centres undefined)	6.51
CCC(=O)N(Cc1ccccc1)CC(O)COc1ccccc1C(=O)CCc1ccccc1 (centres undefined)	5.78
CC(=O)c1ccc(OCC(O)CN2CCOCC2)cc1 (centres undefined)	3.52
COc1ccc(OCC(O)CN2CCN(c3ccccc3C)CC2)c(C(C)=O)c1 (centres undefined)	6.07
COC(CCc1ccccc1)c1ccccc1OCC(O)CNCCC(c1ccccc1)c1ccccc1 (centres undefined)	6.12
CCC(C)c1ccc(C2Nc3ccccc3C(=O)N2c2ccc(Cl)cc2)cc1 (centres undefined)	6.09
CCOCCOC(=O)c1ccc(N)cc1	3.51
CC1c2ccccc2OC1CN1CCCCC1 (centres undefined)	4.31
c1ccc(CCC2c3ccccc3OC2CN2CCCCC2)cc1 (centres undefined)	5.79

More lines, now with the values ahead:

pEC50	SMILES
6.67	O=C1c2c(cccc2OCC(O)CN2CCCCC2)CC1Cc1ccccc1 (centres undefined)
6.18	COC(CCc1ccccc1)c1ccccc1OCC(O)CN(C(C)C)C(C)C (centres undefined)
7.59	Cc1ccc(OCC(O)CN2CCN(c3ccccc3C)CC2)c(C(=O)CCc2ccccc2)c1 (centres undefined)
7.72	Cc1ccccc1N1CCN(CC(O)COc2ccccc2C(=O)CCc2ccc(Cl)cc2)CC1 (centres undefined)
6.62	O=C(CCc1ccccc1)c1ccccc1OCCCCCN1CCCCC1
7.40	COc1ccc(C(=O)CCc2ccc(N(C)C)cc2)c(OCC(O)CN2CCN(c3ccccc3C)CC2)c1 (centres undefined)
6.75	COc1ccc(OCC(O)CN2CCN(c3ccccc3C)CC2)c(C(=O)CCc2ccccc2)c1 (centres undefined)
6.65	COC(CCc1ccccc1)c1ccccc1OCC(O)CN1CCN(c2ccc(F)cc2)CC1 (centres undefined)
6.84	O=C(CCc1ccccc1)c1ccccc1OCC(O)CNC(c1ccccc1)C1CCCCC1 (centres undefined)
6.68	CC(C)C(NCC(O)COc1ccccc1C(=O)CCc1ccccc1)c1ccccc1 (centres undefined)
7.74	Cc1ccc(CCC(=O)c2ccccc2OCC(O)CN2CCN(c3ccccc3C)CC2)cc1 (centres undefined)
6.75	CC(=O)c1ccc(OCC(O)CNCCC(c2ccccc2)c2ccccc2)cc1 (centres undefined)
7.77	Cc1ccccc1N1CCN(CC(O)COc2cc(Cl)c(Cl)cc2C(=O)CCc2ccccc2)CC1 (centres undefined)
6.96	CCCNCC(O)COc1ccc(OCc2ccccc2)cc1C(=O)CCc1ccccc1 (centres undefined)
6.69	O=C(CCc1ccccc1)c1ccccc1OCCCCCCN1CCCCC1
6.19	O=C(CCc1ccccc1)c1ccccc1OCCCN1CCCCC1
6.52	CCC(=O)c1ccccc1OCC(O)CN1CCC(O)(c2ccccc2)CC1 (centres undefined)
6.17	COc1cccc(N2CCN(CC(O)COc3ccccc3C(=O)CCc3ccccc3)CC2)c1 (centres undefined)
6.42	CC(C)N(CC(O)COc1ccccc1C(=O)CCc1ccccc1)C(C)C (centres undefined)
6.96	CC(=O)c1c(C)cc(C)c(CSc2nc3ccc(NC(=O)c4cccc5ccccc45)cc3s2)c1C
6.86	O=C(CCc1ccccc1)c1ccccc1OCCCCCCCCN1CCCCC1
6.42	CC(=O)c1cccc(OCC(=O)CN2CCN(c3cccc(C)c3C)CC2)c1
